The record followed here is US20240358702A1, “CYCLIC UREA KRAS INHIBITORS” (INCYTE CORPORATION, priority 2023, published 2024).

The structures appear in SMILES notation.

Assay [1] concerns the target KRAS G12D (Homo sapiens, UniProt P01116, G12D). Put plainly: GDP-GTP exchange assay (bodipy-GDP/GppNHp, SOS1), KRAS G12D. The class given is biochemical. As to conditions: KRAS_G12D exchange assay IC50; 4 h pre-incubation; value for the most potent isomer quoted. The method, then: (§1) The inhibitor potency of the exemplified compounds was determined in a fluorescence based guanine nucleotide exchange assay, which measures the exchange of bodipy-GDP (fluorescently labeled GDP) for GppNHp (Non-hydrolyzable GTP analog) to generate the active state of KRAS in the presence of SOS1 (guanine nucleotide exchange factor). Inhibitors were serially diluted in DMSO and a volume of 0.1 μL was transferred to the wells of a black low volume 384-well plate. 5 μL/well volume of bodipy-loaded KRAS G12D diluted to […] in assay buffer (25 mM Hepes pH 7.5, 50 mM NaCl, 10 mM mgCl2 and 0.01% Brij-35) was added to the plate and pre-incubated with inhibitor for 4 h at ambient temperature. Appropriate controls (enzyme with no inhibitor or with a G12D inhibitor) were included on the plate. The exchange was initiated by the addition of a 5 μL/well volume containing 1 mM GppNHp and 300 nM SOS1 in assay buffer. The 10 μL/well reaction concentration of the bodipy-loaded KRAS G12D, GppNHp, and SOS1 were 2.5 nM, 500 uM, and 150 nM, respectively. The reaction plates were incubated at ambient temperature for 2 h, a time estimated for complete GDP-GTP exchange in the absence of inhibitor. For the KRAS G12V mutant, similar guanine nucleotide exchange assays were used with 2.5 nM as final concentration for the bodipy loaded KRAS proteins and 3 h incubation after adding GppNHp-SOS1 mixture. A cyclic peptide described to selectively bind G12D mutant (Sakamoto et al., BBRC 484.3 (2017), 605-611) or internal compounds with confirmed binding were used as positive controls in the assay plates. Fluorescence intensities were measured on a PheraStar plate reader instrument (BMG Labtech) with excitation at 485 nm and emission at 520 nm.
(§2) Either GraphPad prism or Genedata Screener SmartFit was used to analyze the data. The IC50 values were derived by fitting the data to a four parameter logistic equation producing a sigmoidal dose-response curve with a variable Hill coefficient.
(§3) The symbol “t” indicates IC50≤100 nM, “††” indicates IC50>100 nM but ≤1 μM; and “†††” indicates IC50 is >1 μM but ≤5 μM, “††††” indicates IC50 is >5 μM but ≤10 μM. “NA” indicates IC50 not available.

Assay [2] has as its target KRAS G12V (Homo sapiens, UniProt P01116, G12V). Kind of assay: GDP-GTP exchange assay (bodipy-GDP/GppNHp, SOS1), KRAS G12V. The class given is biochemical. The following applies: KRAS_G12V exchange assay IC50, value for the most potent isomer quoted; for IC50: read-out: G12V_exchange. The method, then:
as §1, §2, §3

Chain of KRAS G12D (P01116 1-188 isoform P01116-2 G12D): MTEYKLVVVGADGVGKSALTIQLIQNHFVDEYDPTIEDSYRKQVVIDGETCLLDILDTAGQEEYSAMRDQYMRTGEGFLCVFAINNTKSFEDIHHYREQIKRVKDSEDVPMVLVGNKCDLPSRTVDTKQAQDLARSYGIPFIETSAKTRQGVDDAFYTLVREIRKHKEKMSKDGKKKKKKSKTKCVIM
Chain of KRAS G12V (P01116 1-188 isoform P01116-2 G12V): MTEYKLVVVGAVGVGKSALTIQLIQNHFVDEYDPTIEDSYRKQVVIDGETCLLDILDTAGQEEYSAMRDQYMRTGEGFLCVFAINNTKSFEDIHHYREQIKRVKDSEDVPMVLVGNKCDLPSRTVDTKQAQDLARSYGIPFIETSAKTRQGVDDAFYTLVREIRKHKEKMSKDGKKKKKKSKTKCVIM

`Cc1nc2c(F)c(-c3cccc(Cl)c3Cl)c(CCC#N)cc2c2c1cc([C@@H](C)N1CCCN(c3ccnc4sccc34)C1=O)n2[C@H]1[C@H]2CN[C@@H]1C2` (single isomer, unassigned) [Example 8]: the G12D_exchange result in assay [1] is reported as “†”. Moreover, in assay [2], the G12V_exchange result is listed as “†”.
Turning to `Cc1nc2c(F)c(-c3cccc(Cl)c3Cl)c(CCC#N)cc2c2c1cc([C@@H](C)N1CCCN(c3cncnc3)C1=O)n2[C@H]1[C@H]2CN[C@@H]1C2` (single isomer, unassigned) [Example 10], the G12D_exchange entry in assay [1] was “†”. The G12V_exchange entry in assay [2] was “†”.
With `Cc1nc2c(F)c(-c3cccc(Cl)c3Cl)c(CCC#N)cc2c2c1cc([C@@H](C)N1CCCN(c3ccncn3)C1=O)n2[C@H]1[C@H]2CN[C@@H]1C2` (single isomer, unassigned) [Example 11], the G12D_exchange entry in assay [1] is on record as “†”. Also, the IC50 in assay [2] lay within 100 to 1000 nM.
As to `Cc1nc2c(F)c(-c3cccc(Cl)c3Cl)c(CCC#N)cc2c2c1cc([C@@H](C)N1CCCN(c3ccnc(C(F)F)c3)C1=O)n2[C@H]1[C@H]2CN[C@@H]1C2` (single isomer, unassigned) [Example 12], the G12D_exchange result in assay [1] is recorded as “†”. The IC50 in assay [2] lay in the range of 100 to 1000 nM.
The matching figures for `Cc1nc2c(F)c(-c3cccc(Cl)c3Cl)c(CCC#N)cc2c2c1cc([C@@H](C)N1CCCN(c3ccnnc3)C1=O)n2[C@H]1[C@H]2CN[C@@H]1C2` [Example 9, 3-(1-((1R,4R,5S)-2-azabicyclo[2.1.1]hexan-5-yl)-7-(2,3-dichlorophenyl)-6-fluoro-4-methyl-2-((R)-1-(2-oxo-3-(pyridazin-4-yl)tetrahydropyrimidin-1(2H)-yl)ethyl)-1H-pyrrolo[3,2-c]quinolin-8-yl)propanenitrile]: “†” and 100 to 1000 nM.
`Cc1nc2c(F)c(-c3cccc(Cl)c3Cl)c(CCC#N)cc2c2c1cc([C@@H](C)N1CCCN(c3ccccc3)C1=O)n2[C@H]1[C@H]2CN[C@@H]1C2` [Example 16, 3-(1-((1R,4R,5S)-2-azabicyclo[2.1.1]hexan-5-yl)-7-(2,3-dichlorophenyl)-6-fluoro-4-methyl-2-((R)-1-(2-oxo-3-phenyltetrahydropyrimidin-1(2H)-yl)ethyl)-1H-pyrrolo[3,2-c]quinolin-8-yl)propanenitrile]: the G12D_exchange result in assay [1] is recorded as “†”. Moreover, in assay [2], the G12V_exchange entry was “†”.
Take `Cc1nc2c(F)c(-c3cccc(Cl)c3Cl)c(CCC#N)cc2c2c1cc([C@@H](C)N1CCCN(c3ccncc3)C1=O)n2[C@H]1[C@H]2CN[C@@H]1C2` [Example 17, 3-(1-((1R,4R,5S)-2-azabicyclo[2.1.1]hexan-5-yl)-7-(2,3-dichlorophenyl)-6-fluoro-4-methyl-2-((R)-1-(2-oxo-3-(pyridin-4-yl)tetrahydropyrimidin-1(2H)-yl)ethyl)-1H-pyrrolo[3,2-c]quinolin-8-yl)propanenitrile]: in assay [1], the G12D_exchange result is listed as “†”. Further, in assay [2], the IC50 fell in the range of 100 to 1000 nM.
`Cc1nc2c(F)c(-c3cccc(Cl)c3Cl)c(CCC#N)cc2c2c1cc([C@@H](C)N1CCCN(c3ccc(F)cc3)C1=O)n2[C@H]1[C@H]2CN[C@@H]1C2` [Example 18, 3-(1-((1R,4R,5S)-2-azabicyclo[2.1.1]hexan-5-yl)-7-(2,3-dichlorophenyl)-6-fluoro-2-((R)-1-(3-(4-fluorophenyl)-2-oxotetrahydropyrimidin-1(2H)-yl)ethyl)-4-methyl-1H-pyrrolo[3,2-c]quinolin-8-yl)propanenitrile]: the G12D_exchange result in assay [1] was “†”. In assay [2], the G12V_exchange result was “†”.
For the molecule `Cc1nc2c(F)c(-c3cccc(Cl)c3Cl)c(CCC#N)cc2c2c1cc([C@@H](C)N1CCCN(c3ccccn3)C1=O)n2[C@H]1[C@H]2CN[C@@H]1C2` [Example 19, 3-(1-((1R,4R,5S)-2-azabicyclo[2.1.1]hexan-5-yl)-7-(2,3-dichlorophenyl)-6-fluoro-4-methyl-2-((R)-1-(2-oxo-3-(pyridin-2-yl)tetrahydropyrimidin-1(2H)-yl)ethyl)-1H-pyrrolo[3,2-c]quinolin-8-yl)propanenitrile], the G12D_exchange result in assay [1] was “†”. The G12V_exchange entry in assay [2] is reported as “†”.
On to `COc1ncccc1N1CCCN([C@H](C)c2cc3c(C)nc4c(F)c(-c5cccc(Cl)c5Cl)c(CCC#N)cc4c3n2[C@H]2[C@H]3CN[C@@H]2C3)C1=O` [Example 20, 3-(1-((1R,4R,5S)-2-azabicyclo[2.1.1]hexan-5-yl)-7-(2,3-dichlorophenyl)-6-fluoro-2-((R)-1-(3-(2-methoxypyridin-3-yl)-2-oxotetrahydropyrimidin-1(2H)-yl)ethyl)-4-methyl-1H-pyrrolo[3,2-c]quinolin-8-yl)propanenitrile], for which the G12D_exchange result in assay [1] was “†”. Further, the IC50 in assay [2] lay in the range of 100 to 1000 nM.
Consider `Cc1nc2c(F)c(-c3cccc(Cl)c3Cl)c(CCC#N)cc2c2c1cc([C@@H](C)N1CCCN(c3ccncc3F)C1=O)n2[C@H]1[C@H]2CN[C@@H]1C2` [Example 21, 3-(1-((1R,4R,5S)-2-azabicyclo[2.1.1]hexan-5-yl)-7-(2,3-dichlorophenyl)-6-fluoro-2-((R)-1-(3-(3-fluoropyridin-4-yl)-2-oxotetrahydropyrimidin-1(2H)-yl)ethyl)-4-methyl-1H-pyrrolo[3,2-c]quinolin-8-yl)propanenitrile], for which, in assay [1], the G12D_exchange result was “†”. The G12V_exchange result in assay [2] is on record as “†”.
On to `COc1cc(N2CCCN([C@H](C)c3cc4c(C)nc5c(F)c(-c6cccc(Cl)c6Cl)c(CCC#N)cc5c4n3[C@H]3[C@H]4CN[C@@H]3C4)C2=O)ccn1` [Example 22, 3-(1-((1R,4R,5S)-2-azabicyclo[2.1.1]hexan-5-yl)-7-(2,3-dichlorophenyl)-6-fluoro-2-((R)-1-(3-(2-methoxypyridin-4-yl)-2-oxotetrahydropyrimidin-1(2H)-yl)ethyl)-4-methyl-1H-pyrrolo[3,2-c]quinolin-8-yl)propanenitrile], for which the G12D_exchange entry in assay [1] is “†”. Besides, the G12V_exchange entry in assay [2] is given as “†”.
Regarding `Cc1nc2c(F)c(-c3cccc(Cl)c3Cl)c(CCC#N)cc2c2c1cc([C@@H](C)N1CCCN(c3cccnc3)C1=O)n2[C@H]1[C@H]2CN[C@@H]1C2` [Example 23, 3-(1-((1R,4R,5S)-2-azabicyclo[2.1.1]hexan-5-yl)-7-(2,3-dichlorophenyl)-6-fluoro-4-methyl-2-((R)-1-(2-oxo-3-(pyridin-3-yl)tetrahydropyrimidin-1(2H)-yl)ethyl)-1H-pyrrolo[3,2-c]quinolin-8-yl)propanenitrile], the G12D_exchange result in assay [1] was “†”. For the same molecule, in assay [2], the G12V_exchange entry is recorded as “†”.
On to `Cc1nc2c(F)c(-c3cccc(Cl)c3Cl)c(CCC#N)cc2c2c1cc([C@@H](C)N1CCCN(c3cccc(C4(O)COC4)c3)C1=O)n2[C@H]1[C@H]2CN[C@@H]1C2` [Example 24, 3-(1-((1R,4R,5S)-2-azabicyclo[2.1.1]hexan-5-yl)-7-(2,3-dichlorophenyl)-6-fluoro-2-((R)-1-(3-(3-(3-hydroxyoxetan-3-yl)phenyl)-2-oxotetrahydropyrimidin-1(2H)-yl)ethyl)-4-methyl-1H-pyrrolo[3,2-c]quinolin-8-yl)propanenitrile], for which the G12D_exchange entry in assay [1] was “†”. For the same molecule, the G12V_exchange entry in assay [2] is listed as “†”.
In the case of `Cc1nc2c(F)c(-c3cccc(Cl)c3Cl)c(CCC#N)cc2c2c1cc([C@@H](C)N1CCCN(c3ccc(C#N)cc3)C1=O)n2[C@H]1[C@H]2CN[C@@H]1C2` [Example 25, 4-(3-((1R)-1-(1-((1R,4R,5S)-2-azabicyclo[2.1.1]hexan-5-yl)-8-(2-cyanoethyl)-7-(2,3-dichlorophenyl)-6-fluoro-4-methyl-1H-pyrrolo[3,2-c]quinolin-2-yl)ethyl)-2-oxotetrahydropyrimidin-1(2H)-yl)benzonitrile], in assay [1], the G12D_exchange result was “†”. For the same molecule, in assay [2], the IC50 lay in the range of 100 to 1000 nM.
On to `Cc1nc2c(F)c(-c3cccc(Cl)c3Cl)c(CCC#N)cc2c2c1cc([C@@H](C)N1CCCN(c3ccnnc3)C1=O)n2[C@H]1[C@H]2CN[C@@H]1C2` [Example 35, 3-(1-((1R,4R,5S)-2-azabicyclo[2.1.1]hexan-5-yl)-7-(2,3-dichlorophenyl)-6-fluoro-4-methyl-2-((R)-1-(2-oxo-3-(pyridazin-4-yl)tetrahydropyrimidin-1(2H)-yl)ethyl)-1H-pyrrolo[3,2-c]quinolin-8-yl)propanenitrile], for which the G12D_exchange entry in assay [1] was “†”.
